What was measured:
[1] = tested on: hMSCs; assay: Live/dead cytotoxicity test in hMSCs; format: cell-based, human; details: 1 μg/mL and 10 μg/mL, 24 hours
Procedure: FIG. 4. Verteporfin is not cytotoxic to hMSCs. The hMSCs were treated with verteporfin at concentrations of 1 μg/mL and 10 μg/mL for 24 hours. Cells were treated with 10% DMSO for 40 minutes. The next day, the live/dead solution was added to the cells.
The hMSCs were treated with verteporfin at concentrations of 1 μg/mL and 10 μg/mL for 24 hours. Cells were treated with 10% DMSO for 40 minutes. The next day, the live/dead solution was added to the cells.

[2] = tested on: ki67 (Mki67) expression in hMSCs; assay: qPCR of ki67 expression in hMSCs; format: cell-based, human; details: Verteporfin 1 μg/mL and 10 μg/mL, 24 hours
Procedure: FIG. 3. […] The hMSCs were cultured on plates. The next day, the treatments were added in duplicate: Verteporfin 1 μg/mL, Verteporfin 10 μg/mL, DMSO, and cells without treatment. After 24 hours, the medium was removed, the wells were washed with PBS and then the RNA of the cells were extracted using Trizol and Quiagen kit. qPCR was performed.
The hMSCs were cultured on plates. The next day, the treatments were added in duplicate: Verteporfin 1 μg/mL, Verteporfin 10 μg/mL, DMSO, and cells without treatment. After 24 hours, the medium was removed, the wells were washed with PBS and then the RNA of the cells were extracted using Trizol and Quiagen kit. qPCR was performed.

[3] = tested on: corneal scarring after anterior lamellar keratectomy; assay: Rat model of corneal injury (anterior lamellar keratectomy); format: in vivo; details: ALK cut depth around 50%, 10 μg/mL in Provisc gel subconjunctivally on Day 0, read at day 3, versus untreated eyes
Procedure: FIG. 6. Efficacy of verteporfin in reducing corneal scarring. Anterior lamellar keratectomy (ALK) with a cut depth of around 50% was performed in a rat model of corneal injury. 10 μg/mL verteporfin (in Provisc gel) was subconjunctivally injected after ALK on Day 0.
Anterior lamellar keratectomy (ALK) with a cut depth of around 50% was performed in a rat model of corneal injury. 10 μg/mL verteporfin (in Provisc gel) was subconjunctivally injected after ALK on Day 0.

[4] = tested on: skin wounds; details: cited from earlier work
[5] = tested on: α-smooth muscle actin (α-SMA, ACTA-2) expression in hMSCs; assay: qPCR of α-smooth muscle actin expression in TGFB-1 treated hMSCs; format: cell-based, human
Procedure: FIG. 1. Verteporfin reduces expression of α-smooth muscle actin in hMSCs. Human mesenchymal stem cells (hMSCs) were plated in culture. The next day, the following treatments were added in duplicate: 1 μg/mL Verteporfin, 10 μg/mL Verteporfin, 10 ng/ml transforming growth factor beta-1 (TGFB-1), 1 μg/mL Verteporfin+10 ng/mL TGFB-1, 10 μg/mL Verteporfin+10 ng/ml TGFB-1, Dimethyl sulfoxide (DMSO), and cells without treatment. After 24 hours, the medium was removed, the wells were washed with PBS and then the RNA of the cells were extracted using Trizol and a Quiagen kit. Quantitative polymerase chain reaction (qPCR) was performed. TGFB-1 activation leads to the differentiation of mesenchymal stem cells into myofibroblasts, inducing expression of α-smooth muscle actin (α-SMA) and the extracellular matrix proteins such as collagen which may lead to scarring.
Human mesenchymal stem cells (hMSCs) were plated in culture. The next day, the following treatments were added in duplicate: 1 μg/mL Verteporfin, 10 μg/mL Verteporfin, 10 ng/ml transforming growth factor beta-1 (TGFB-1), 1 μg/mL Verteporfin+10 ng/ml TGFB-1, 10 μg/mL Verteporfin+10 ng/ml TGFB-1, Dimethyl sulfoxide (DMSO), and cells without treatment. […] Quantitative polymerase chain reaction (qPCR) was performed.

[6] = tested on: alpha smooth muscle actin (ASMA) in hMSCs; assay: Immunostaining of alpha smooth muscle actin in hMSCs; format: cell-based, human; details: 10 ng/ml TGFB-1 with or without verteporfin, 24 hours
Procedure: FIG. 2. Results of immunostaining alpha smooth muscle actin in hMSCs. The hMSCs, were treated with 10 ng/ml TGFB-1 with or without verteporfin and DMSO for 24 hours. The next day, the cells were fixed and stained for alpha smooth muscle actin (ASMA).
The hMSCs, treated with 10 ng/ml TGFB-1 with or without verteporfin and DMSO for 24 hours, were fixed and stained for alpha smooth muscle actin (ASMA) the next day.

[7] = tested on: bleb survival after glaucoma filtration surgery; assay: Rabbit model of glaucoma filtration surgery; format: in vivo, New Zealand White rabbits; details: subconjunctival injection into the bleb after surgery, various concentrations, versus BSS control eye
Procedure: FIGS. 5A-5B. Efficacy of verteporfin in reducing scarring and increasing bleb survival. The efficacy of verteporfin in reducing scarring and increasing bleb survival was evaluated in a rabbit model of glaucoma filtration surgery. Glaucoma filtration surgery was performed in both eyes of New Zealand White rabbits. In one eye, various concentrations of verteporfin or Mitomycin C was injected subconjunctivally into the bleb after surgery. In the contralateral eye, BSS was injected after surgery as a control. Bleb appearance and survival were evaluated postoperatively at least twice a week. Bleb survival was the primary endpoint. […] There were no post-surgical complications in all groups, including corneal edema, bleb leak, anterior chamber inflammation, iris involvement, cataract or infection (FIG. 5B).
The efficacy of verteporfin in reducing scarring and increasing bleb survival was evaluated in a rabbit model of glaucoma filtration surgery. Glaucoma filtration surgery was performed in both eyes of New Zealand White rabbits. In one eye, various concentrations of verteporfin or Mitomycin C was injected subconjunctivally into the bleb after surgery. In the contralateral eye, BSS was injected after surgery as a control. Bleb appearance and survival were evaluated postoperatively at least twice a week. Bleb survival was the primary endpoint.

Substance | cytotoxicity (live/dead) [1] | expression of ki67 (Mki67), marker of cell proliferation (qPCR) [2] | corneal scarring [3] | scar formation in skin wounds ([4]; mice, injection into skin wounds) | side effects on dosing in the skin ([4]; previous animal studies) | expression of alpha-SMA (qPCR) ([5]; 10 ng/ml TGFB-1 + 1 or 10 μg/mL Verteporfin, 24 hours) | expression of ASMA (immunostaining) [6] | bleb survival [7] | expression of alpha-SMA (ACTA-2) (qPCR) ([5]; 10 ng/ml TGFB-1 alone, after 24 hours)
Verteporfin | not cytotoxic | did not increase the expression of ki67 | reduced corneal scarring | prevented scar formation | minimal side effects | statistically reduced the expression of alpha-SMA in a dose dependent manner | reduces the expression of ASMA | trend towards increased survival | 
transforming growth factor beta-1 [TGFB-1] |  |  |  |  |  |  |  |  | statistically increased the expression of alpha-SMA
